{"source": "patent US4421767A", "about": "“Compounds and methods for treating depression” (priority 1982, dated 1983)", "key": {"MAO [1]": {"system": "MAO", "test": "In vitro MAO inhibition", "format": "biochemical"}, "depression": {"system": "depression", "settings": "literature; cited from earlier work"}, "cheese effect": {"system": "cheese effect", "settings": "low dosages where preferential inhibition of MAO-B occurs; cited from earlier work"}, "neuronal MAO": {"system": "neuronal MAO", "test": "Ex vivo MAO activity after i.p. injection in rats, neuronal MAO", "design": "species or system rat", "settings": "AFMBA 100 mg/kg i.p., 18 hours", "method": "(§1) Rats were injected with AFHBA (0.5 mg/kg, i.p.) alone or with AFHBA (0.5 mg/kg, i.p.) in combination with MFMD (2.0 mg/kg, i.p.) administered 30 minutes before AFHBA. Animals were killed 18 hours later and MAO activity (5-HT and phenethylamine as substrates) was determined in brain, heart, and liver. In the brain, AFHBA administered alone inhibited neuronal MAO by 72% and non-neuronal MAO by 37%.\n(§2) III. Rats were injected with AFMBA (100 mg/kg, i.p.) and were killed 18 hours later. MAO activity was determined in the brain, heart, and liver using 5-HT and PEA."}, "non-neuronal MAO": {"system": "non-neuronal MAO", "test": "Ex vivo MAO activity after i.p. injection in rats, non-neuronal MAO", "design": "species or system rat", "settings": "AFMBA 100 mg/kg i.p., 18 hours", "method": "as §1, §2"}, "MAO [2]": {"system": "MAO", "settings": "literature; cited from earlier work"}, "[3]": {"system": "heart rate and blood pressure responses to tyramine", "test": "Potentiation of tyramine response after 5 days oral MAO inhibitor in rats (Table I)", "format": "in vivo, rat", "settings": "for Tyramine Potentiation: 5 days, tyramine i.d.", "method": "(A) Rats were gavaged daily for 5 days with saline or 2-amino-4-fluoro-3-(3'-hydroxyphenyl)-3-butenoic acid (AFHBA) at dosages of 15.6, 62.5, 250, or 1000 μg/kg or with clorgyline at dosages of 1250 or 5000 μg/kg. On the 6th day, rats were anaesthetized and heart rate and blood pressure responses to tyramine (0.3-50 mg/kg) administered intraduodenally (i.d.) were determined. Additionally, monoamines and MAO activity were determined in various tissues including brain."}, "[4]": {"system": "brain noradrenaline and 5-HT concentrations", "test": "Brain amine concentration after 5 days oral MAO inhibitor in rats (Table I)", "format": "in vivo, rat", "settings": "for Brain Amine Concentration, 5-HT / Brain Amine Concentration, Noradrenaline: 5 days", "method": "On the 6th day, rats were anaesthetized and heart rate and blood pressure responses to tyramine (0.3-50 mg/kg) administered intraduodenally (i.d.) were determined. Additionally, monoamines and MAO activity were determined in various tissues including brain."}, "MAO-A": {"system": "MAO-A", "settings": "literature; cited from earlier work"}, "MAO-B": {"system": "MAO-B", "settings": "literature; cited from earlier work"}, "MAO [5]": {"system": "MAO", "test": "Ex vivo MAO activity in rats, protection by extracerebral AADC inhibitor", "design": "species or system rat", "settings": "carbidopa 50 mg/kg i.p. with AFHBA, compared with MFMD 2.0 mg/kg i.p., heart", "method": "as §1\nMAO activity was determined in the brain using 5-HT and phenethylamine (PEA) as substrates."}, "[6]": {"system": "brain noradrenaline and 5-HT concentrations", "test": "Brain amine concentration, AFHBA with or without carbidopa pretreatment in rats (Table II)", "format": "in vivo, rat", "settings": "for Brain Amine Concentration, 5-HT / Brain Amine Concentration, Noradrenaline: 5 days", "method": "(§3) (B) Rats were gavaged with saline or carbidopa given at dosage of 10 or 100 mg/kg. Thirty minutes later, the rats were gavaged with saline or AFHBA given at a dosage of 62.5 μg/kg. This treatment was repeated daily for 5 days. On the 6th day, the rats were anaesthetized and heart rate and blood pressure responses to tyramine (0.3-50 mg/kg, i.d.) were determined. Additionally, monoamines and MAO activity were determined in various tissues, including brain."}, "[7]": {"system": "heart rate and blood pressure responses to tyramine", "format": "in vivo, rat", "settings": "for Tyramine Potentiation: 5 days, tyramine i.d.", "method": "as §3"}, "[8]": {"settings": "Clorgyline 5000 μg/kg daily p.o."}, "[9]": {"settings": "Clorgyline 1250 μg/kg daily p.o."}, "[10]": {"settings": "carbidopa alone 10000 μg/kg daily p.o."}, "[11]": {"settings": "carbidopa alone 100000 μg/kg daily p.o."}}, "note": "Where two headings read alike, the source gives them in different places.", "data": [{"smiles": "NCC(=CF)c1cccc(O)c1", "note": "[2-(3'-hydroxy)phenyl-3-fluoroallylamine]", "values": [{"measurement": "MAO inhibition type", "setting": "MAO [1]", "result": "time-dependent irreversible inhibitor"}, {"measurement": "IC50", "setting": "MAO [1]; unit inferred", "result": "~1", "unit": "nM"}]}, {"smiles": "C#CCN(C)[C@H](C)Cc1ccccc1", "note": "[L-deprenyl]", "values": [{"measurement": "clinical antidepressant effect", "setting": "depression", "result": "clinically effective antidepressant agents"}, {"measurement": "cheese effect", "setting": "cheese effect", "result": "not observed"}]}, {"smiles": "COc1ccc(C(=CF)C(N)C(=O)O)cc1O", "note": "(centres unmarked) [AFMBA, 2-amino-4-fluoro-3-(3'-hydroxy-4-methoxyphenyl)-3-butenoic acid]", "values": [{"measurement": "% Inhibition of MAO, Neuronal", "setting": "neuronal MAO; brain", "result": 16, "unit": "%"}, {"measurement": "% Inhibition of MAO, Neuronal", "setting": "neuronal MAO; heart", "result": 18, "unit": "%"}, {"measurement": "% Inhibition of MAO, Neuronal", "setting": "neuronal MAO; liver", "result": 2, "unit": "%"}, {"measurement": "% Inhibition of MAO, Non-neuronal", "setting": "non-neuronal MAO; brain", "result": 40, "unit": "%"}, {"measurement": "% Inhibition of MAO, Non-neuronal", "setting": "non-neuronal MAO; heart", "result": 46, "unit": "%"}, {"measurement": "% Inhibition of MAO, Non-neuronal", "setting": "non-neuronal MAO; liver", "result": 11, "unit": "%"}]}, {"smiles": "N[C@@H]1C[C@H]1c1ccccc1", "note": "(relative stereo) [tranylcypromine]", "values": [{"measurement": "preference of action upon MAO", "setting": "MAO [2]", "result": "not preferential in their action upon MAO"}]}, {"smiles": "C#CCN(C)CCCOc1ccc(Cl)cc1Cl", "note": "[Clorgyline, reference compound]", "values": [{"measurement": "Tyramine Potentiation", "setting": "[3]; Clorgyline 1250 μg/kg daily p.o., some potentiation at lowest doses of tyramine (footnote c)", "result": 1.0}, {"measurement": "Tyramine Potentiation", "setting": "[3]; [8]", "result": 5.0}, {"measurement": "potentiation of the tyramine response (dose relation)", "setting": "[3]; subacute treatment", "result": "potentiation of the tyramine response"}, {"measurement": "Brain Amine Concentration, 5-HT", "setting": "[4]; [9]", "result": "620 ± 34", "unit": "ng/g"}, {"measurement": "Brain Amine Concentration, Noradrenaline", "setting": "[4]; [9]", "result": "351 ± 11", "unit": "ng/g"}, {"measurement": "Brain Amine Concentration, 5-HT", "setting": "[4]; [8]", "result": "1027 ± 82", "unit": "ng/g"}, {"measurement": "Brain Amine Concentration, Noradrenaline", "setting": "[4]; [8]", "result": "329 ± 19", "unit": "ng/g"}, {"measurement": "brain noradrenaline and 5-HT concentrations (dose relation)", "setting": "[4]; subacute treatment", "result": "dose-related increases in brain noradrenaline and 5-HT concentrations"}, {"measurement": "selectivity at lower versus higher dosages", "setting": "MAO [2]", "result": "selective inhibitors at lower dosages, but are not selective inhibitors at higher dosages"}, {"measurement": "clinical antidepressant effect", "setting": "depression", "result": "clinically effective antidepressant agents"}, {"measurement": "preferential inhibition of MAO-A", "setting": "MAO-A", "result": "preferentially inhibited"}]}, {"smiles": "NNCCc1ccccc1", "note": "[phenelzine]", "values": [{"measurement": "preference of action upon MAO", "setting": "MAO [2]", "result": "not preferential in their action upon MAO"}]}, {"smiles": "C#CCN(C)Cc1ccccc1", "note": "[pargyline]", "values": [{"measurement": "preferential inhibition of MAO-B", "setting": "MAO-B", "result": "preferentially inhibited"}, {"measurement": "selectivity at lower versus higher dosages", "setting": "MAO [2]", "result": "selective inhibitors at lower dosages, but are not selective inhibitors at higher dosages"}, {"measurement": "clinical antidepressant effect", "setting": "depression", "result": "clinically effective antidepressant agents"}]}, {"smiles": "Cc1cc(C(=O)NNCc2ccccc2)no1", "note": "[isocarboxazid]", "values": [{"measurement": "preference of action upon MAO", "setting": "MAO [2]", "result": "not preferential in their action upon MAO"}]}, {"smiles": "C[C@@](Cc1ccc(O)c(O)c1)(NN)C(=O)O", "note": "[Carbidopa, reference compound]", "values": [{"measurement": "protective effect against inhibition of MAO in the heart", "setting": "MAO [5]", "result": "same protective effect against inhibition of MAO in the heart as MFMD"}, {"measurement": "elevation of brain monoamines on coadministration with AFHBA", "setting": "[6]; carbidopa 10 mg/kg + AFHBA 62.5 μg/kg", "result": "significantly enhanced the elevation of brain monoamines"}, {"measurement": "effectiveness of AFHBA to raise brain monoamines on coadministration", "setting": "[6]; carbidopa 100 mg/kg + AFHBA", "result": "reduced the effectiveness of AFHBA to raise brain monoamines"}, {"measurement": "Brain Amine Concentration, 5-HT", "setting": "[6]; [10]", "result": "599 ± 31", "unit": "ng/g"}, {"measurement": "Brain Amine Concentration, Noradrenaline", "setting": "[6]; [10]", "result": "366 ± 3", "unit": "ng/g"}, {"measurement": "Brain Amine Concentration, 5-HT", "setting": "[6]; [11]", "result": "443 ± 19", "unit": "ng/g"}, {"measurement": "Brain Amine Concentration, Noradrenaline", "setting": "[6]; [11]", "result": "271 ± 19", "unit": "ng/g"}, {"measurement": "effect on tyramine response", "setting": "[7]; carbidopa alone 10 mg/kg", "result": "no effect on tyramine response"}, {"measurement": "Tyramine Potentiation", "setting": "[7]; [10]", "result": 1.1}, {"measurement": "Tyramine Potentiation", "setting": "[7]; [11]", "result": 2.3}, {"measurement": "effect on tyramine response", "setting": "[7]; carbidopa alone 100 mg/kg", "result": "potentiated the tyramine response"}]}]}
